Key:
Format in all cases: physicochemical
[1] = Thermogravimetric Analysis/Dynamic Temperature Analysis (TGA/DTA); conditions: for TGA wt. loss: from the onset to about 210° C., heating 10° C./min
Procedure: Approximately 5-10 mg of material was weighed into an open aluminum pan and loaded into a TA Instruments SDT650 and held at room temperature. The sample was then heated at a rate of 10° C./min from 30° C. to 350° C. during which time the change in sample weight was recorded along with the heat flow response (DSC). Nitrogen was used as the purge gas, at a flow rate of 100 cm^3/min for both the sample and balance purges.

[2] = Thermodynamic solubility studies; conditions: for Average Concentration: triplicate average; for Form by XRPD Dry: residual solids dried under vacuum; for Form by XRPD Wet: residual solids
Procedure: For each experiment, approximately 50 mg of either crystal form A or crystal form B was weighed into a 20 mL scintillation vial. 15 mL of the appropriate solvent system was added and the solution was stirred at 37° C. At approximately 7.5 h, a portion of the mother liquor was transferred to a pre-heated vial (at 37° C.) via syringe filter (0.45 μm). An aliquot of slurry was removed, and the solids in the aliquot were isolated by centrifugation and plated for XRPD analysis. The plated solids were stored in freezer for 12 h prior to analysis.
The remaining solution was further stirred at 37° C. overnight (approximately 25 h total stirring time). Stirring was then terminated and the solids were allowed to settle. After approximately 0.75 h, a portion of the mother liquor was transferred to a pre-heated vial (at 37° C.) via syringe filter (0.45 μm). The residual solids were isolated by centrifugation and analyzed by XRPD.
For “dry” analysis, the XRPD plates were dried under vacuum at ambient temperature for approximately 23 h and re-analyzed.

[3] = Dynamic Vapor Sorption (DVS)
Procedure: Approximately 10-20 mg of sample was placed into a mesh vapor sorption balance pan and loaded into a Surface Measurement Systems DVS Intrinsic dynamic vapor sorption balance. The material was subjected to a ramping profile from 40 to 90% relative humidity (RH) at 10% increments, maintaining the sample at each step until a stable weight had been achieved (dm/dt 0.004%, minimum step length 30 minutes, maximum step length 500 minutes) at 25° C. After completion of the sorption cycle, the sample was dried using the same procedure to 0% RH and then a second sorption cycle back to 40% RH was carried out. Two cycles were performed. The weight change during the sorption/desorption cycles were plotted, allowing the hygroscopic nature of the sample to be determined. XRPD analysis was then carried out on any solid retained.
Because this equilibration with ambient humidity is rapid, calculation or use of sufficiently accurate assay results on Form A material must take into account its current water content.

[4] = FaSSGF, after approximately 7.5 h at 37° C.
[5] = FaSSGF, after approximately 25 h at 37° C.
[6] = FaSSIF, after approximately 7.5 h at 37° C.
[7] = FaSSIF, after approximately 25 h at 37° C.
[8] = FeSSIF, after approximately 7.5 h at 37° C.
[9] = FeSSIF, after approximately 25 h at 37° C.
[10] = pH 6.1 media, after approximately 7.5 h at 37° C.
[11] = pH 6.1 media, after approximately 25 h at 37° C.
[12] = pH 6.8 media, after approximately 7.5 h at 37° C.
[13] = pH 6.8 media, after approximately 25 h at 37° C.
[14] = FaSSGF, approximately 7.5 h at 37° C.
[15] = FaSSGF, approximately 25 h at 37° C.
[16] = FeSSIF, approximately 7.5 h at 37° C.
[17] = FeSSIF, approximately 25 h at 37° C.
[18] = pH 6.1 media, approximately 25 h at 37° C.
[19] = pH 6.8 media, approximately 25 h at 37° C.

Row | SMILES | TGA wt. loss [1] [% wt.] | Average Concentration [2, 4] [µg/mL] | Average Concentration [2, 5] [µg/mL] | Average Concentration [2, 6] [µg/mL] | Average Concentration [2, 7] [µg/mL] | Average Concentration [2, 8] [µg/mL] | Average Concentration [2, 9] [µg/mL] | Average Concentration [2, 10] [µg/mL] | Average Concentration [2, 11] [µg/mL] | Average Concentration [2, 12] [µg/mL] | Average Concentration [2, 13] [µg/mL] | also measured
1 | CCCCCCC(C)(C)c1cc(O)c2c(c1)OC(C)(C)[C@@H]1CC=C(C(=O)O)C[C@@H]21 [crystal form B, (6aR,10aR)-1-hydroxy-6,6-dimethyl-3-(2-methyl-2-octanyl)-6a,7,10,10a-tetrahydro-6H-benzo[c]chromene-9-carboxylic acid] | 0.9 | 0.3 | 0.4 | 242 | 266 | 684 | 696 | 1.2 | 0.1 | 4.3 | 2.0 | TGA wt. loss ([1]; listed as Crystal Form B): no significant mass loss; decomposition temperature by TGA/DTA ([1]; heating 10° C./min from 30° C. to 350° C.): ca. 285 °C; water uptake ([3]; at 90% RH, 25° C.): circa 1 wt %; hygroscopic nature by DVS ([3]; ramping 40 to 90% RH, 25° C.): slightly hygroscopic; Post-DVS XRPD analysis ([3]; solid retained after two sorption/desorption cycles): no change in pattern
2 | CCCCCCC(C)(C)c1cc(O)c2c(c1)OC(C)(C)[C@@H]1CC=C(C(=O)O)C[C@@H]21 [crystal form A, (6aR,10aR)-1-hydroxy-6,6-dimethyl-3-(2-methyl-2-octanyl)-6a,7,10,10a-tetrahydro-6H-benzo[c]chromene-9-carboxylic acid] | 0.7 | 0.2 | 0.2 | 1063 | 391 | 335 | 227 | 3.0 | 2.0 | 18 | 14 | TGA wt. loss ([1]; listed as Crystal Form A): 0.7 % wt.; Form by XRPD Dry [2, 14]: A + trace B; Form by XRPD Dry [2, 15]: B + A; Form by XRPD Dry [2, 16]: A*; Form by XRPD Dry [2, 17]: (X) +; Form by XRPD Dry [2, 18]: A +; Form by XRPD Dry [2, 19]: A*; Form by XRPD Wet [2, 14]: A + trace B; Form by XRPD Wet [2, 15]: A + B; Form by XRPD Wet ([2]; FaSSIF, approximately 25 h at 37° C.): B +; Form by XRPD Wet [2, 16]: A*; Form by XRPD Wet [2, 17]: (X) +; Form by XRPD Wet [2, 18]: A + B; Form by XRPD Wet [2, 19]: A*; uptake of water by weight ([3]; at 90% RH, similar DVS studies): about 3.5%

— patent publication US20230339880A1, “COMPOSITIONS OF AJULEMIC ACID AND USES THEREOF” (priority 2019, published 2023)
